Laboratory results published in US5281604A, “Angiotensin II receptor blocking 2,3,6-substituted quinazolinones” (American Cyanamid Company, priority 1993, dated 1994).
“And” between values parts separate entries of the source, which are not always exact repeats. Identical values can stand only once.

System: ANGIOTENSIN II (AII) VASOPRESSOR RESPONSE
Experiment: AII Challenge: blockade of the angiotensin II vasopressor response in conscious spontaneously hypertensive rats
Format: in vivo, rat (Male Okamoto-Aoki SHR)
Description: By administering a compound of this invention to a rat, and then challenging with angiotensin II, a blockage of the vasopressor response is realized.
Conscious Male Okamoto-Aoki SHR, 16-20 weeks old, weighing approximately 330 g are purchased from Charles River Labs (Wilmington, Mass.). Conscious rats are restrained in a supine position with elastic tape. The area at the base of the tail is locally anesthetized by subcutaneous infiltration with 2% procaine. The ventral caudal artery and vein are isolated, and a cannula made of polyethylene (PE) 10-20 tubing (fused together by heat) is passed into the lower abdominal aorta and vena cava, respectively. The cannula is secured, heparinized (1,000 I.U./ml), sealed and the wound is closed. The animals are placed in plastic restraining cages in an upright position. The cannula is attached to a Statham P23Db pressure transducer, and pulsatile blood pressure is recorded to 10-15 minutes with a Gould Brush recorder. (Chan et al., (Drug Development Res., 18:75-94, 1989).
Angiotensin II (human sequence, Sigma Chem. Co., St. Louis, Mo.) of 0.05 and 0.1 ug/kg i.v. is injected into all rats (predosing response). Then a test compound, vehicle or a known angiotensin II antagonist is administered i.v., i.p. or orally to each set of rats. The two doses of angiotensin II are given to each rat again at 30, 60, 90, 120, 180, 240 and 300 minutes post dosing the compound or vehicle. The vasopressor response of angiotensin II is measured for the increase in systolic blood pressure in mmHg. The percentage of antagonism or blockade of the vasopressor response of angiotensin II by a compound is calculated using the vasopressor response (increase in systolic blood pressure) of angiotensin II of each rat predosing the compound as 100%. A compound is considered active if at 30 mg/kg i.v. it antagonized at least 50% of the response.

[1] = 3 mg/kg i.v., AII 0.05 mcg/kg IV, 30 min post dose
[2] = 3 mg/kg i.v., AII 0.05 mcg/kg IV, 60 min post dose
[3] = 3 mg/kg i.v., AII 0.05 mcg/kg IV, 90 min post dose
[4] = 3 mg/kg i.v., AII 0.05 mcg/kg IV, 120 min post dose
[5] = 3 mg/kg i.v., AII 0.05 mcg/kg IV, 180 min post dose
[6] = 3 mg/kg i.v., AII 0.05 mcg/kg IV, 240 min post dose
[7] = 3 mg/kg i.v., AII 0.05 mcg/kg IV, 300 min post dose
[8] = 3 mg/kg i.v., AII 0.1 mcg/kg IV, 30 min post dose
[9] = 3 mg/kg i.v., AII 0.1 mcg/kg IV, 60 min post dose
[10] = 3 mg/kg i.v., AII 0.1 mcg/kg IV, 90 min post dose
[11] = 3 mg/kg i.v., AII 0.1 mcg/kg IV, 120 min post dose
[12] = 3 mg/kg i.v., AII 0.1 mcg/kg IV, 180 min post dose
[13] = 3 mg/kg i.v., AII 0.1 mcg/kg IV, 240 min post dose
[14] = 3 mg/kg i.v., AII 0.1 mcg/kg IV, 300 min post dose
[15] = 3 mg/kg p.o., AII 0.05 mcg/kg IV, 30 min post dose
[16] = 3 mg/kg p.o., AII 0.05 mcg/kg IV, 60 min post dose
[17] = 3 mg/kg p.o., AII 0.05 mcg/kg IV, 90 min post dose
[18] = 3 mg/kg p.o., AII 0.05 mcg/kg IV, 120 min post dose
[19] = 3 mg/kg p.o., AII 0.05 mcg/kg IV, 180 min post dose
[20] = 3 mg/kg p.o., AII 0.05 mcg/kg IV, 240 min post dose
[21] = 3 mg/kg p.o., AII 0.1 mcg/kg IV, 30 min post dose
[22] = 3 mg/kg p.o., AII 0.1 mcg/kg IV, 60 min post dose
[23] = 3 mg/kg p.o., AII 0.1 mcg/kg IV, 90 min post dose
[24] = 3 mg/kg p.o., AII 0.1 mcg/kg IV, 120 min post dose
[25] = 3 mg/kg p.o., AII 0.1 mcg/kg IV, 180 min post dose
[26] = 3 mg/kg p.o., AII 0.1 mcg/kg IV, 240 min post dose

CCCCc1nc2ccc([C@H]3OC[C@H]4[C@@H]3ON3[C@@H]4CCC3(C)C)cc2c(=O)n1Cc1ccc(-c2ccccc2-c2nnn[nH]2)cc1 (relative stereo) [Example 7, (1α, 3aα, 8aβ, 8bα)-2-Butyl-6-(octahydro-6,6-dimethylfuro[3,4-d]pyrrolo[1,2-b]isoxazol-1-yl)-3-[[2'-(1H-tetrazol-5-yl)[1,1'-biphenyl]-4-yl]methyl]-4 (3H)-quinazolinone]
% Inhibition [1]: 91% | Average Change [1]: 4.5 mmHg | Control Before AII (single rat) [1]: 245 mmHg and 214 mmHg | Response After AII (single rat) [1]: 245 mmHg and 223 mmHg | Response Change (single rat) [1]: 0 mmHg and 9 mmHg | % Inhibition [2]: 84% | Average Change [2]: 7.5 mmHg | Control Before AII (single rat) [2]: 240 mmHg and 225 mmHg | Response After AII (single rat) [2]: 255 mmHg and 225 mmHg | Response Change (single rat) [2]: 15 mmHg and 0 mmHg | % Inhibition [3]: 89% | Average Change [3]: 5 mmHg | Control Before AII (single rat) [3]: 235 mmHg | Response After AII (single rat) [3]: 240 mmHg | Response Change (single rat) [3]: 5 mmHg | % Inhibition [4]: 84% | Average Change [4]: 7.5 mmHg | Control Before AII (single rat) [4]: 225 mmHg and 220 mmHg | Response After AII (single rat) [4]: 235 mmHg and 225 mmHg | Response Change (single rat) [4]: 10 mmHg and 5 mmHg | % Inhibition [5]: 79% | Average Change [5]: 10 mmHg | Control Before AII (single rat) [5]: 225 mmHg and 215 mmHg | Response After AII (single rat) [5]: 235 mmHg and 225 mmHg | Response Change (single rat) [5]: 10 mmHg | % Inhibition [6]: 63% | Average Change [6]: 17.5 mmHg | Control Before AII (single rat) [6]: 225 mmHg and 215 mmHg | Response After AII (single rat) [6]: 235 mmHg and 240 mmHg | Response Change (single rat) [6]: 10 mmHg and 25 mmHg | % Inhibition [7]: 74% | Average Change [7]: 12.5 mmHg | Control Before AII (single rat) [7]: 235 mmHg and 210 mmHg | Response After AII (single rat) [7]: 242 mmHg and 228 mmHg | Response Change (single rat) [7]: 7 mmHg and 18 mmHg | % Inhibition [8]: 90% | Average Change [8]: 5 mmHg | Control Before AII (single rat) [8]: 255 mmHg and 220 mmHg | Response After AII (single rat) [8]: 260 mmHg and 225 mmHg | Response Change (single rat) [8]: 5 mmHg | % Inhibition [9]: 86% | Average Change [9]: 7.5 mmHg | Control Before AII (single rat) [9]: 250 mmHg and 215 mmHg | Response After AII (single rat) [9]: 255 mmHg and 225 mmHg | Response Change (single rat) [9]: 5 mmHg and 10 mmHg | % Inhibition [10]: 83% | Average Change [10]: 9 mmHg | Control Before AII (single rat) [10]: 235 mmHg and 225 mmHg | Response After AII (single rat) [10]: 238 mmHg and 240 mmHg | Response Change (single rat) [10]: 3 mmHg and 15 mmHg | % Inhibition [11]: 86% | Average Change [11]: 7.5 mmHg | Control Before AII (single rat) [11]: 235 mmHg and 215 mmHg | Response After AII (single rat) [11]: 240 mmHg and 225 mmHg | Response Change (single rat) [11]: 5 mmHg and 10 mmHg | % Inhibition [12]: 72% | Average Change [12]: 14.5 mmHg | Control Before AII (single rat) [12]: 235 mmHg and 205 mmHg | Response After AII (single rat) [12]: 245 mmHg and 224 mmHg | Response Change (single rat) [12]: 10 mmHg and 19 mmHg | % Inhibition [13]: 81% | Average Change [13]: 10 mmHg | Control Before AII (single rat) [13]: 235 mmHg and 225 mmHg | Response After AII (single rat) [13]: 245 mmHg and 235 mmHg | Response Change (single rat) [13]: 10 mmHg | % Inhibition [14]: 57% | Average Change [14]: 22.5 mmHg | Control Before AII (single rat) [14]: 230 mmHg and 215 mmHg | Response After AII (single rat) [14]: 250 mmHg and 240 mmHg | Response Change (single rat) [14]: 20 mmHg and 25 mmHg | % Inhibition [15]: 23% | Average Change [15]: 29 mmHg | Control Before AII (single rat) [15]: 215 mmHg and 205 mmHg | Response After AII (single rat) [15]: 248 mmHg and 230 mmHg | Response Change (single rat) [15]: 33 mmHg and 25 mmHg | % Inhibition [16]: 27% | Average Change [16]: 27.5 mmHg | Control Before AII (single rat) [16]: 230 mmHg and 195 mmHg | Response After AII (single rat) [16]: 255 mmHg and 225 mmHg | Response Change (single rat) [16]: 25 mmHg and 30 mmHg | % Inhibition [17]: 31% | Average Change [17]: 26 mmHg | Control Before AII (single rat) [17]: 210 mmHg and 193 mmHg | Response After AII (single rat) [17]: 245 mmHg and 210 mmHg | Response Change (single rat) [17]: 35 mmHg and 17 mmHg | % Inhibition [18]: 27% | Average Change [18]: 27.5 mmHg | Control Before AII (single rat) [18]: 210 mmHg and 195 mmHg | Response After AII (single rat) [18]: 245 mmHg and 215 mmHg | Response Change (single rat) [18]: 35 mmHg and 20 mmHg | % Inhibition [19]: 0% | Average Change [19]: 37.5 mmHg | Control Before AII (single rat) [19]: 210 mmHg and 190 mmHg | Response After AII (single rat) [19]: 255 mmHg and 220 mmHg | Response Change (single rat) [19]: 45 mmHg and 30 mmHg | % Inhibition [20]: 0% | Average Change [20]: 37.5 mmHg | Control Before AII (single rat) [20]: 210 mmHg and 190 mmHg | Response After AII (single rat) [20]: 260 mmHg and 215 mmHg | Response Change (single rat) [20]: 50 mmHg and 25 mmHg | % Inhibition [21]: 6% | Average Change [21]: 40 mmHg | Control Before AII (single rat) [21]: 215 mmHg and 200 mmHg | Response After AII (single rat) [21]: 260 mmHg and 235 mmHg | Response Change (single rat) [21]: 45 mmHg and 35 mmHg | % Inhibition [22]: 6% | Average Change [22]: 40 mmHg | Control Before AII (single rat) [22]: 215 mmHg and 195 mmHg | Response After AII (single rat) [22]: 255 mmHg and 235 mmHg | Response Change (single rat) [22]: 40 mmHg | % Inhibition [23]: 18% | Average Change [23]: 35 mmHg | Control Before AII (single rat) [23]: 215 mmHg and 195 mmHg | Response After AII (single rat) [23]: 260 mmHg and 220 mmHg | Response Change (single rat) [23]: 45 mmHg and 25 mmHg | % Inhibition [24]: 24% | Average Change [24]: 32.5 mmHg | Control Before AII (single rat) [24]: 205 mmHg and 190 mmHg | Response After AII (single rat) [24]: 240 mmHg and 220 mmHg | Response Change (single rat) [24]: 35 mmHg and 30 mmHg | % Inhibition [25]: 12% | Average Change [25]: 37.5 mmHg | Control Before AII (single rat) [25]: 215 mmHg and 180 mmHg | Response After AII (single rat) [25]: 260 mmHg and 210 mmHg | Response Change (single rat) [25]: 45 mmHg and 30 mmHg | % Inhibition [26]: 9% | Average Change [26]: 38.5 mmHg | Control Before AII (single rat) [26]: 213 mmHg and 185 mmHg | Response After AII (single rat) [26]: 265 mmHg and 210 mmHg | Response Change (single rat) [26]: 52 mmHg and 25 mmHg
